Measured values reported in article PMC4583449, “Characterisation of (R)-2-(2-Fluorobiphenyl-4-yl)-N-(3-Methylpyridin-2-yl)Propanamide as a Dual Fatty Acid Amide Hydrolase: Cyclooxygenase Inhibitor” (PLoS ONE, 2015).

What was measured:
RAW 264.7 cells [1] = assay: Lipid profile (prostaglandins, 2-AG, AEA and related lipids) of RAW 264.7 cell extracts, UPLC-MS/MS; format: cell-based, mouse; conditions: 30 min, URB597 1 μM
RAW 264.7 cells [2] = assay: [3H]AEA hydrolysis by intact RAW 264.7 cells; format: cell-based, mouse; conditions: LPS + INF-γ-treated cells; 100 nM [3H]AEA, 60 min; URB597 1 μM, flurbiprofen and (R)-Flu-AM1 10 μM
rat brain FAAH = target: T1, rat brain FAAH (Rattus norvegicus, UniProt P97612); conditions: racemate; read-out: IC50 FAAH, rat brain homogenates; cited from earlier work
T1 construct: the racemate was studied in rat brain homogenates, whereas mouse brain homogenates were used here; from tissue; host or cells: rat brain homogenates
T1 sequence (P97612 1-579): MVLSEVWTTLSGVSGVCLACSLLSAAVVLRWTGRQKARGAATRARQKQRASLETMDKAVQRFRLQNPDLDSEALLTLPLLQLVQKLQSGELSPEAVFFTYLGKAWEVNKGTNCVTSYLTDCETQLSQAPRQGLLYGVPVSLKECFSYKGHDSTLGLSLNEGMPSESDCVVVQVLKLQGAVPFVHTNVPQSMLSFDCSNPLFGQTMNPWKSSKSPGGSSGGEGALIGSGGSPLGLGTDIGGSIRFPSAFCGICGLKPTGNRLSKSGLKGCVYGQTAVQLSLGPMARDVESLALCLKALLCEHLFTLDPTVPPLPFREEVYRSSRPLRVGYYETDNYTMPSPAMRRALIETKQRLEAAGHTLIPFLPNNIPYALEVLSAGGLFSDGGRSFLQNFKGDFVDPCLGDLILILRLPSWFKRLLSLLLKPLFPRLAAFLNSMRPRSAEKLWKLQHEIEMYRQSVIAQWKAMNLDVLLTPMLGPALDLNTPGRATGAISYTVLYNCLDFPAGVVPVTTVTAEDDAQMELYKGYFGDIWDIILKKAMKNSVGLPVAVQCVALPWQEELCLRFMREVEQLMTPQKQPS

[3] = LPS + IFNγ 24 h, flurbiprofen 10 μM, (R)-Flu-AM1 10 μM, median (range), n = 5–6
[4] = Treatment None (unstimulated), flurbiprofen 10 μM, (R)-Flu-AM1 10 μM, median (range), n = 5–6

## NC(=O)c1cccc(-c2cccc(OC(=O)NC3CCCCC3)c2)c1 [URB597, cyclohexylcarbamic acid 3′-carbamoylbiphenyl-3-yl ester, reference compound]
RAW 264.7 cells [1]; [3]
  2-AG level relative to vehicle None median: 0.90 (0.70–1.11)
  9,10,13-TriHOME level relative to vehicle None median: 1.08 (0.68–1.89)
  9,10-DiHOME level relative to vehicle None median: 0.76 (0.69–1.05)
  9,12,13-TriHOME level relative to vehicle None median: 1.08 (0.66–1.79)
  9-HODE level relative to vehicle None median: 1.11 (0.49–1.20)
  11-HETE level relative to vehicle None median: 13.0 (4.82–25.7)
  12(13)-EpOME level relative to vehicle None median: 1.24 (0.92–1.72)
  12(S)-HEPE level relative to vehicle None median: 0.59 (0.28–1.36)
  12,13-DiHOME level relative to vehicle None median: 0.93 (0.85–1.26)
  12-HETE level relative to vehicle None median: 0.61 (0.41–0.96)
  13-HODE level relative to vehicle None median: 1.16 (0.49–1.43)
  13-oxo-ODE level relative to vehicle None median: 1.52 (0.34–2.87)
  15-HETE level relative to vehicle None median: 4.58 (0.97–5.29)
  AEA level relative to vehicle None median: 1.39 (1.26–1.58)
  LEA level relative to vehicle None median: 1.06 (0.79–1.87)
  OEA level relative to vehicle None median: 0.97 (0.74–1.96)
  PEA level relative to vehicle None median: 0.97 (0.88–1.31)
  PGD2 level relative to vehicle None median: 35.1 (19.4–117)
  PGE2 level relative to vehicle None median: 10.6 (7.33–33.5)
  SEA level relative to vehicle None median: 0.79 (0.67–1.28)
RAW 264.7 cells [1]; LPS + INF-γ-treated, ionomycin (5 μM) treated cells, flurbiprofen and (R)-Flu-AM1 10 μM
  Effect on levels of AEA and related N-acylethanolamines in the cells: modest effects
RAW 264.7 cells [1]; [4]
  2-AG level relative to vehicle None median: 1.10 (0.61–1.47)
  9,10,13-TriHOME level relative to vehicle None median: 1.13 (0.44–2.51)
  9,10-DiHOME level relative to vehicle None median: 1.10 (0.65–1.32)
  9,12,13-TriHOME level relative to vehicle None median: 1.23 (0.51–2.53)
  9-HODE level relative to vehicle None median: 1.14 (0.72–2.07)
  11-HETE level relative to vehicle None median: 1.12 (0–2.69)
  12(13)-EpOME level relative to vehicle None median: 1.07 (0.66–1.66)
  12(S)-HEPE level relative to vehicle None median: 0.59 (0–0.85)
  12,13-DiHOME level relative to vehicle None median: 1.15 (1.04–1.39)
  12-HETE level relative to vehicle None median: 0.94 (0.33–1.48)
  13-HODE level relative to vehicle None median: 1.42 (0.79–1.75)
  13-oxo-ODE level relative to vehicle None median: 1.40 (0.76–2.27)
  15-HETE level relative to vehicle None median: 1.02 (0.25–2.16)
  AEA level relative to vehicle None median: 0.85 (0.45–1.18)
  LEA level relative to vehicle None median: 0.79 (0.68–1.15)
  PEA level relative to vehicle None median: 1.07 (0.87–1.28)
  PGD2 level relative to vehicle None median: 1.37 (0.79–2.48)
  PGE2 level relative to vehicle None median: 0.98 (0.49–1.81)
  SEA level relative to vehicle None median: 0.80 (0.65–1.27)
RAW 264.7 cells [2]
  Effect on hydrolysis of exogenous [3H]AEA by intact cells: completely blocked

## Cc1cccnc1NC(=O)C(C)c1ccc(-c2ccccc2)c(F)c1 (stereo not drawn) [Flu-AM1, 2-(2-fluorobiphenyl-4-yl)-N-(3-methylpyridin-2-yl)propanamide]
Rat brain FAAH
  IC50: 440 nM
